In ChEMBL document CHEMBL4665885, “Structural Basis of Nanomolar Inhibition of Tumor-Associated Carbonic Anhydrase IX: X-Ray Crystallographic and Inhibition Study of Lipophilic Inhibitors with Acetazolamide Backbone” (J Med Chem, 2020) one finds Ki data, which are given here for 5 molecules.

pKi: −log10 of the molar value.

The target in one assay is Carbonic anhydrase 1 (Homo sapiens, UniProt P00915). Put plainly: Inhibition of recombinant human CA1 expressed in Escherichia coli BL21 preincubated for 15 mins by phenol red dye-based stopped-flow CO2 hydration assay.
In another assay the target is Carbonic anhydrase 9 (Homo sapiens, UniProt Q16790). Put plainly: Inhibition of recombinant human CA9 expressed in Escherichia coli BL21 preincubated for 15 mins by phenol red dye-based stopped-flow CO2 hydration assay.

Carbonic anhydrase 1, sequence (P00915 whole entry): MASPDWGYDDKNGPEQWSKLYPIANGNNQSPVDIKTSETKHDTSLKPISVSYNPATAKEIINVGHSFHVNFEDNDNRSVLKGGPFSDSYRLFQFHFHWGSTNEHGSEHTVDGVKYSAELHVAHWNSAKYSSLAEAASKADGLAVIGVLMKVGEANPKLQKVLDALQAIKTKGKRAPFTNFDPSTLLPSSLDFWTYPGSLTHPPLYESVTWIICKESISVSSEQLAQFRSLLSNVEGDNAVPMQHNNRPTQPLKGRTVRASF

Consider `CCCC(=O)Nc1nnc(S(N)(=O)=O)s1`, for which the pKi at Carbonic anhydrase 1 is 7.27; at Carbonic anhydrase 9, 8.68.

As for `CC(C)C(=O)Nc1nnc(S(N)(=O)=O)s1`, the pKi is 7.12 on Carbonic anhydrase 1 and 8.62 on Carbonic anhydrase 9.

For the molecule `CC(C)(C)C(=O)Nc1nnc(S(N)(=O)=O)s1`, the pKi is 7.20 at Carbonic anhydrase 1 and 8.09 at Carbonic anhydrase 9.

Turning to `NS(=O)(=O)c1nnc(NC(=O)C2CCCCC2)s1`, the negative logarithm of the Ki (pKi) was 7.20 at Carbonic anhydrase 1 and 7.80 on Carbonic anhydrase 9.

Consider `CCC(=O)Nc1nnc(S(N)(=O)=O)s1` [PROPAZOLAMIDE], for which, at Carbonic anhydrase 9, the negative logarithm of the Ki (pKi) was 7.89.
